According to publication PMC8963254, “Effects of Lysine N-ζ-Methylation in Ultrashort Tetrabasic Lipopeptides (UTBLPs) on the Potentiation of Rifampicin, Novobiocin, and Niclosamide in Gram-Negative Bacteria” (Antibiotics, 2022):
Like-named read-outs stand apart in the source and are kept apart here. Non-standard residues stand in square brackets, D forms with d. Residues, ends and D or L forms follow the SMILES beside them. *: point of attachment. Lys(Me3) = C[N+](C)(C)CCCC[C@H](N)C(=O)O; Octanoyl = CCCCCCCC(=O)*

Assays:
[1] = system: E. faecalis ATCC 29212; assay type: cell-based, Enterococcus faecalis; conditions: ATCC 29212, 18 h
Procedure, shortened: (§1)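 MIC was determined by broth microdilution following CLSI guidelines. Serially varied compound concentrations were incubated with bacterial inoculum at 5 × 10^5 CFU/mL (final) for 18 h at 37 °C. Growth was scored as turbidity by absorbance at 590 nm.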

[2] = system: E. faecium ATCC 27270; assay type: cell-based, Enterococcus faecium; conditions: ATCC 27270, 18 h
Procedure, shortened: as §1

[3] = system: P. aeruginosa PA259-96196; assay type: cell-based, Pseudomonas aeruginosa; conditions: for MICUTBLP: UTBLP alone
Procedure, shortened: (§2)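 Checkerboard synergy assay: antibiotic and OMP combined at varying concentrations with 5 × 10^5 CFU/mL inoculum (final), 37 °C, 18 h; growth read as turbidity at 590 nm. FICI = sum of FICs (MIC in combination / MIC alone); ≤0.5 synergistic, 0.5–4 additive, >4 antagonistic.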

[4] = system: P. aeruginosa PA262-101856; assay type: cell-based, Pseudomonas aeruginosa; conditions: for MICUTBLP: UTBLP alone
Procedure, shortened: as §2

[5] = system: P. aeruginosa PAO1; assay type: cell-based, Pseudomonas aeruginosa; conditions: for MICUTBLP: UTBLP alone
Procedure, shortened: as §2

[6] = system: P. aeruginosa PA259-96196; assay: microbe, parasite or virus in culture; assay type: cell-based, Pseudomonas aeruginosa; conditions: PA259-96196, 18 h
Procedure, shortened: as §1

[7] = system: P. aeruginosa PA262-101856; assay: microbe, parasite or virus in culture; assay type: cell-based, Pseudomonas aeruginosa; conditions: PA262-101856, 18 h
Procedure, shortened: as §1

[8] = system: K. pneumoniae 113250; assay type: cell-based, Klebsiella pneumoniae; conditions: for MICUTBLP: UTBLP alone
Procedure, shortened: as §2

[9] = system: E. cloacae 118564; assay type: cell-based, Enterobacter cloacae; conditions: for MICUTBLP: UTBLP alone
Procedure, shortened: as §2

[10] = system: A. baumannii ATCC 17978; assay type: cell-based, Acinetobacter baumannii; conditions: for MICUTBLP: UTBLP alone
Procedure, shortened: as §2

[11] = system: P. aeruginosa PAO1; assay type: cell-based, Pseudomonas aeruginosa; conditions: PAO1, 18 h
Procedure, shortened: as §1

[12] = system: A. baumannii AB92247; assay: microbe, parasite or virus in culture; assay type: cell-based, Acinetobacter baumannii; conditions: AB92247, 18 h
Procedure, shortened: as §1

[13] = system: A. baumannii AB027; assay: microbe, parasite or virus in culture; assay type: cell-based, Acinetobacter baumannii; conditions: AB027, 18 h
Procedure, shortened: as §1

[14] = system: E. cloacae 118564; assay: microbe, parasite or virus in culture; assay type: cell-based, Enterobacter cloacae; conditions: 118564, 18 h
Procedure, shortened: as §1

[15] = system: MRSA ATCC 33592; assay type: cell-based, Staphylococcus aureus
Procedure, shortened: as §2

[16] = system: S. aureus ATCC 29213; assay type: cell-based, Staphylococcus aureus
Procedure, shortened: as §2

[17] = system: MRSE 61589; assay type: cell-based, Staphylococcus epidermidis
Procedure, shortened: as §2

[18] = system: MSSE 81388; assay type: cell-based, Staphylococcus epidermidis
Procedure, shortened: as §2

[19] = UTBLP in combination with novobiocin
[20] = UTBLP in combination with rifampicin
[21] = novobiocin in combination with the UTBLP
[22] = rifampicin in combination with the UTBLP
[23] = UTBLP in combination with chloramphenicol
[24] = UTBLP in combination with niclosamide
[25] = chloramphenicol in combination with the UTBLP
[26] = niclosamide in combination with the UTBLP
[27] = UTBLP alone, plate with chloramphenicol

## CCCCCCCC(=O)NCCCC[C@H](NC(=O)CCCCCCC)C(=O)N[C@@H](CCCC[N+](C)(C)C)C(=O)N[C@@H](CCCC[N+](C)(C)C)C(=O)N[C@@H](CCCC[N+](C)(C)C)C(=O)N[C@@H](CCCC[N+](C)(C)C)C(N)=O [UTBLP 8] (Octanoyl-K(Octanoyl)[Lys(Me3)][Lys(Me3)][Lys(Me3)][Lys(Me3)]-NH2)
[1]
  MIC: 128 µg/mL
[2]
  MIC: 128 µg/mL
[3]; UTBLP + novobiocin
  Interpretation: Additive (0.5 < x ≤ 4 is additive)
[3]; UTBLP + rifampicin
  Interpretation: Additive (0.5 < x ≤ 4 is additive)
[3]; plate with novobiocin
  MICUTBLP: > 128 µg/mL
[3]; plate with rifampicin
  MICUTBLP: > 128 µg/mL
[3]; [19]
  MICUTBLP [MICcombo]: 16 µg/mL
[3]; [20]
  MICUTBLP [MICcombo]: 16 µg/mL
[3]; [21]
  MICantibiotic [MICcombo]: 1024 µg/mL
[3]; [22]
  MICantibiotic [MICcombo]: 16 µg/mL
[4]; UTBLP + novobiocin
  Interpretation: Additive (0.5 < x ≤ 4 is additive)
[4]; UTBLP + rifampicin
  Interpretation: Additive (0.5 < x ≤ 4 is additive)
[4]; plate with novobiocin
  MICUTBLP: > 128 µg/mL
[4]; plate with rifampicin
  MICUTBLP: > 128 µg/mL
[4]; [19]
  MICUTBLP [MICcombo]: 16 µg/mL
[4]; [20]
  MICUTBLP [MICcombo]: 16 µg/mL
[4]; [21]
  MICantibiotic [MICcombo]: 1024 µg/mL
[4]; [22]
  MICantibiotic [MICcombo]: 512 µg/mL
[5]; UTBLP + chloramphenicol
  Interpretation: Additive (0.5 < x ≤ 4 is additive)
[5]; UTBLP + niclosamide
  Interpretation: Additive (0.5 < x ≤ 4 is additive)
[5]; UTBLP + novobiocin
  Interpretation: Additive (0.5 < x ≤ 4 is additive)
[5]; UTBLP + rifampicin
  Interpretation: Additive (0.5 < x ≤ 4 is additive)
[5]; plate with chloramphenicol
  MICUTBLP: > 128 µg/mL
[5]; plate with niclosamide
  MICUTBLP: > 128 µg/mL
[5]; plate with novobiocin
  MICUTBLP: > 128 µg/mL
[5]; plate with rifampicin
  MICUTBLP: > 128 µg/mL
[5]; [23]
  MICUTBLP [MICcombo]: 0.25 µg/mL
[5]; [24]
  MICUTBLP [MICcombo]: 0.25 µg/mL
[5]; [19]
  MICUTBLP [MICcombo]: 0.25 µg/mL
[5]; [20]
  MICUTBLP [MICcombo]: 0.25 µg/mL
[5]; [25]
  MICantibiotic [MICcombo]: 16 µg/mL
[5]; [26]
  MICantibiotic [MICcombo]: 1024 µg/mL
[5]; [21]
  MICantibiotic [MICcombo]: 512 µg/mL
[5]; [22]
  MICantibiotic [MICcombo]: 16 µg/mL
[6]
  MIC: > 128 µg/mL
[7]
  MIC: > 128 µg/mL
[8]; UTBLP + novobiocin
  Interpretation: Synergy (FICI ≤ 0.5 is synergistic)
[8]; UTBLP + rifampicin
  Interpretation: Synergy (FICI ≤ 0.5 is synergistic)
[8]; plate with novobiocin
  MICUTBLP: > 128 µg/mL
[8]; plate with rifampicin
  MICUTBLP: > 128 µg/mL
[8]; [19]
  MICUTBLP [MICcombo]: 16 µg/mL
[8]; [20]
  MICUTBLP [MICcombo]: 16 µg/mL
[8]; [21]
  MICantibiotic [MICcombo]: 32 µg/mL
[8]; [22]
  MICantibiotic [MICcombo]: 4 µg/mL
[9]; UTBLP + novobiocin
  Interpretation: Synergy (FICI ≤ 0.5 is synergistic)
[9]; UTBLP + rifampicin
  Interpretation: Additive (0.5 < x ≤ 4 is additive)
[9]; plate with novobiocin
  MICUTBLP: > 128 µg/mL
[9]; plate with rifampicin
  MICUTBLP: > 128 µg/mL
[9]; [19]
  MICUTBLP [MICcombo]: 16 µg/mL
[9]; [20]
  MICUTBLP [MICcombo]: 16 µg/mL
[9]; [21]
  MICantibiotic [MICcombo]: 32 µg/mL
[9]; [22]
  MICantibiotic [MICcombo]: 4 µg/mL
[10]; UTBLP + chloramphenicol
  Interpretation: Additive (0.5 < x ≤ 4 is additive)
[10]; UTBLP + niclosamide
  Interpretation: Synergy (FICI ≤ 0.5 is synergistic)
[10]; UTBLP + novobiocin
  Interpretation: Synergy (FICI ≤ 0.5 is synergistic)
[10]; UTBLP + rifampicin
  Interpretation: Synergy (FICI ≤ 0.5 is synergistic)
[10]; plate with chloramphenicol
  MICUTBLP: > 128 µg/mL
[10]; plate with niclosamide
  MICUTBLP: > 128 µg/mL
[10]; plate with novobiocin
  MICUTBLP: > 128 µg/mL
[10]; plate with rifampicin
  MICUTBLP: > 128 µg/mL
[10]; [23]
  MICUTBLP [MICcombo]: 0.25 µg/mL
[10]; [24]
  MICUTBLP [MICcombo]: 2 µg/mL
[10]; [19]
  MICUTBLP [MICcombo]: 16 µg/mL
[10]; [20]
  MICUTBLP [MICcombo]: 16 µg/mL
[10]; [25]
  MICantibiotic [MICcombo]: 64 µg/mL
[10]; [26]
  MICantibiotic [MICcombo]: 16 µg/mL
[10]; [21]
  MICantibiotic [MICcombo]: 4 µg/mL
[10]; [22]
  MICantibiotic [MICcombo]: 0.25 µg/mL
[11]
  MIC: >128 µg/mL
[12]
  MIC: 128 µg/mL
[13]
  MIC: > 128 µg/mL
[14]
  MIC: > 128 µg/mL
[15]; UTBLP + chloramphenicol
  Interpretation: Additive (0.5 < x ≤ 4 is additive)
[15]; [27]
  MICUTBLP: > 128 µg/mL
[15]; [23]
  MICUTBLP [MICcombo]: 0.25 µg/mL
[15]; [25]
  MICchloramphenicol [MICcombo]: 64 µg/mL
[16]; [27]
  MICUTBLP: > 128 µg/mL
[16]; [23]
  MICUTBLP [MICcombo]: 0.25 µg/mL
[16]; [25]
  MICchloramphenicol [MICcombo]: 8 µg/mL
[17]; UTBLP + chloramphenicol
  Interpretation: Additive (0.5 < x ≤ 4 is additive)
[17]; [27]
  MICUTBLP: 128 µg/mL
[17]; [23]
  MICUTBLP [MICcombo]: 0.25 µg/mL
[17]; [25]
  MICchloramphenicol [MICcombo]: 8 µg/mL
[18]; UTBLP + chloramphenicol
  Interpretation: Additive (0.5 < x ≤ 4 is additive)
[18]; [27]
  MICUTBLP: 128 µg/mL
[18]; [23]
  MICUTBLP [MICcombo]: 0.25 µg/mL
[18]; [25]
  MICchloramphenicol [MICcombo]: 4 µg/mL
